Measurements reported in patent publication US12257246B2, “Composition of 2,4,6-trifluoro-n-[6-(1-methyl-piperidin-4-carbonyl)-pyridin-2-yl[-benzamide” (CoLucid Pharmaceuticals, Inc., priority 2009, dated 2025).

Tested on: rabbit saphenous vein
Experiment: Rabbit saphenous vein contraction

With `CN1CCC(C(=O)c2cccc(NC(=O)c3c(F)cc(F)cc3F)n2)CC1` [Compound I, 2,4,6-trifluoro-N-[6-(1-methyl-piperidin-4-ylcarbonyl)-pyridin-2-yl]-benzamide] the vasoconstrictive activity was “not be significantly vasoconstrictive”.
